Measured values from patent publication US12215082B1 (priority 2023, dated 2025).

Each molecule was assayed on multidrug-resistant (MDR) strains of Mycobacterium tuberculosis (assay: microbe, parasite or virus in culture). Settings: 192 h, read-out: MIC MDR-TB.
Assay type: cell-based

| SMILES | MIC |
| --- | --- |
| O=C(C[n+]1ccc(/C=N/O)cc1)c1ccccc1.[Br-] [Compound 3a, (E)-4-((Hydroxyimino)methyl)-1-(2-oxo-2-phenylethyl)pyridin-1-ium bromide] | 64 µg/mL |
| O=C(C[n+]1ccc(/C=N/O)cc1)c1ccc(Br)cc1.[Br-] [Compound 3b, (E)-1-(2-(4-Bromophenyl)-2-oxoethyl)-4-((hydroxyimino)methyl)pyridin-1-ium bromide] | 64 µg/mL |
| O=C(C[n+]1ccc(/C=N/O)cc1)c1ccc(F)cc1.[Br-] [Compound 3c, (E)-1-(2-(4-Fluorophenyl)-2-oxoethyl)-4-((hydroxyimino)methyl)pyridin-1-ium bromide] | 128 µg/mL |
| N#Cc1ccc(C(=O)C[n+]2ccc(/C=N/O)cc2)cc1.[Br-] [Compound 3d, (E)-1-(2-(4-Cyanophenyl)-2-oxoethyl)-4-((hydroxyimino)methyl)pyridin-1-ium bromide] | 128 µg/mL |
| O=C(C[n+]1ccc(/C=N/O)cc1)c1ccccc1[N+](=O)[O-].[Br-] [Compound 3e, (E)-4-((Hydroxyimino)methyl)-1-(2-(2-nitrophenyl)-2-oxoethyl)pyridin-1-ium bromide] | 64 µg/mL |
